Measurements as given in ChEMBL document CHEMBL3400097, “Effect of arginine methylation on the RNA recognition and cellular uptake of Tat-derived peptides” (Bioorg Med Chem, 2015).

Assays:
Jurkat [1] = test: Cellular uptake in human Jurkat cells at 7 to 120 uM after 15 mins by 6-carboxyfluorescein staining-based flow cytometry; type: ADME, cell-based; conditions: 0.25 h
Nucleic Acid = test: Binding affinity to HIV TAR RNA by electrophoretic mobility shift assay in presence of Escherichia coli tRNA; type: nucleic-acid assay, Human immunodeficiency virus
Jurkat [2] = test: Cytotoxicity against human Jurkat cells assessed as cell viability at 120 uM after 4 hrs by WST-1 assay; type: cell-based

Structure (SMILES) | Drug uptake (Jurkat [1]) | Kd (Nucleic Acid) [µM] | Activity (Jurkat [2])
N=C(N)NCCC[C@H](NC(=O)[C@H](CCCNC(=N)N)NC(=O)[C@H](CCCNC(=N)N)NC(=O)[C@H](CCC(N)=O)NC(=O)[C@H](CCCNC(=N)N)NC(=O)[C@H](CCCNC(=N)N)NC(=O)[C@H](CCCCN)NC(=O)[C@H](CCCCN)NC(=O)[C@H](CCCNC(=N)N)NC(=O)CNC(=O)[C@H](Cc1ccc(O)cc1)NC(=O)CCNC(=O)c1ccc2c(c1)C1(OC2=O)c2ccc(O)cc2Oc2cc(O)ccc21)C(N)=O | Active | – | –
CNC(=N)NCCC[C@H](NC(=O)CNC(=O)[C@H](Cc1ccc(O)cc1)NC(=O)CCNC(=O)c1ccc2c(c1)C1(OC2=O)c2ccc(O)cc2Oc2cc(O)ccc21)C(=O)N[C@@H](CCCCN)C(=O)N[C@@H](CCCCN)C(=O)N[C@@H](CCCNC(=N)N)C(=O)N[C@@H](CCCNC(=N)N)C(=O)N[C@@H](CCC(N)=O)C(=O)N[C@@H](CCCNC(=N)N)C(=O)N[C@@H](CCCNC(=N)N)C(=O)N[C@@H](CCCNC(=N)N)C(N)=O | Active | – | –
CNC(=N)NCCC[C@H](NC(=O)[C@H](CCCCN)NC(=O)[C@H](CCCCN)NC(=O)[C@H](CCCNC(=N)N)NC(=O)CNC(=O)[C@H](Cc1ccc(O)cc1)NC(=O)CCNC(=O)c1ccc2c(c1)C1(OC2=O)c2ccc(O)cc2Oc2cc(O)ccc21)C(=O)N[C@@H](CCCNC(=N)N)C(=O)N[C@@H](CCC(N)=O)C(=O)N[C@@H](CCCNC(=N)N)C(=O)N[C@@H](CCCNC(=N)N)C(=O)N[C@@H](CCCNC(=N)N)C(N)=O | Active | – | –
CNC(=N)NCCC[C@H](NC(=O)[C@H](CCCNC(=N)N)NC(=O)[C@H](CCCCN)NC(=O)[C@H](CCCCN)NC(=O)[C@H](CCCNC(=N)N)NC(=O)CNC(=O)[C@H](Cc1ccc(O)cc1)NC(=O)CCNC(=O)c1ccc2c(c1)C1(OC2=O)c2ccc(O)cc2Oc2cc(O)ccc21)C(=O)N[C@@H](CCC(N)=O)C(=O)N[C@@H](CCCNC(=N)N)C(=O)N[C@@H](CCCNC(=N)N)C(=O)N[C@@H](CCCNC(=N)N)C(N)=O | Active | – | –
CNC(=N)NCCC[C@H](NC(=O)[C@H](CCC(N)=O)NC(=O)[C@H](CCCNC(=N)N)NC(=O)[C@H](CCCNC(=N)N)NC(=O)[C@H](CCCCN)NC(=O)[C@H](CCCCN)NC(=O)[C@H](CCCNC(=N)N)NC(=O)CNC(=O)[C@H](Cc1ccc(O)cc1)NC(=O)CCNC(=O)c1ccc2c(c1)C1(OC2=O)c2ccc(O)cc2Oc2cc(O)ccc21)C(=O)N[C@@H](CCCNC(=N)N)C(=O)N[C@@H](CCCNC(=N)N)C(N)=O | Active | – | –
CNC(=N)NCCC[C@H](NC(=O)[C@H](CCCNC(=N)N)NC(=O)[C@H](CCC(N)=O)NC(=O)[C@H](CCCNC(=N)N)NC(=O)[C@H](CCCNC(=N)N)NC(=O)[C@H](CCCCN)NC(=O)[C@H](CCCCN)NC(=O)[C@H](CCCNC(=N)N)NC(=O)CNC(=O)[C@H](Cc1ccc(O)cc1)NC(=O)CCNC(=O)c1ccc2c(c1)C1(OC2=O)c2ccc(O)cc2Oc2cc(O)ccc21)C(=O)N[C@@H](CCCNC(=N)N)C(N)=O | Active | – | –
CNC(=N)NCCC[C@H](NC(=O)[C@H](CCCNC(=N)N)NC(=O)[C@H](CCCNC(=N)N)NC(=O)[C@H](CCC(N)=O)NC(=O)[C@H](CCCNC(=N)N)NC(=O)[C@H](CCCNC(=N)N)NC(=O)[C@H](CCCCN)NC(=O)[C@H](CCCCN)NC(=O)[C@H](CCCNC(=N)N)NC(=O)CNC(=O)[C@H](Cc1ccc(O)cc1)NC(=O)CCNC(=O)c1ccc2c(c1)C1(OC2=O)c2ccc(O)cc2Oc2cc(O)ccc21)C(N)=O | Active | – | –
CN(C)C(=N)NCCC[C@H](NC(=O)CNC(=O)[C@H](Cc1ccc(O)cc1)NC(=O)CCNC(=O)c1ccc2c(c1)C1(OC2=O)c2ccc(O)cc2Oc2cc(O)ccc21)C(=O)N[C@@H](CCCCN)C(=O)N[C@@H](CCCCN)C(=O)N[C@@H](CCCNC(=N)N)C(=O)N[C@@H](CCCNC(=N)N)C(=O)N[C@@H](CCC(N)=O)C(=O)N[C@@H](CCCNC(=N)N)C(=O)N[C@@H](CCCNC(=N)N)C(=O)N[C@@H](CCCNC(=N)N)C(N)=O | Active | – | –
CN(C)C(=N)NCCC[C@H](NC(=O)[C@H](CCCCN)NC(=O)[C@H](CCCCN)NC(=O)[C@H](CCCNC(=N)N)NC(=O)CNC(=O)[C@H](Cc1ccc(O)cc1)NC(=O)CCNC(=O)c1ccc2c(c1)C1(OC2=O)c2ccc(O)cc2Oc2cc(O)ccc21)C(=O)N[C@@H](CCCNC(=N)N)C(=O)N[C@@H](CCC(N)=O)C(=O)N[C@@H](CCCNC(=N)N)C(=O)N[C@@H](CCCNC(=N)N)C(=O)N[C@@H](CCCNC(=N)N)C(N)=O | Active | – | –
CN(C)C(=N)NCCC[C@H](NC(=O)[C@H](CCCNC(=N)N)NC(=O)[C@H](CCCCN)NC(=O)[C@H](CCCCN)NC(=O)[C@H](CCCNC(=N)N)NC(=O)CNC(=O)[C@H](Cc1ccc(O)cc1)NC(=O)CCNC(=O)c1ccc2c(c1)C1(OC2=O)c2ccc(O)cc2Oc2cc(O)ccc21)C(=O)N[C@@H](CCC(N)=O)C(=O)N[C@@H](CCCNC(=N)N)C(=O)N[C@@H](CCCNC(=N)N)C(=O)N[C@@H](CCCNC(=N)N)C(N)=O | Active | – | –
CN(C)C(=N)NCCC[C@H](NC(=O)[C@H](CCC(N)=O)NC(=O)[C@H](CCCNC(=N)N)NC(=O)[C@H](CCCNC(=N)N)NC(=O)[C@H](CCCCN)NC(=O)[C@H](CCCCN)NC(=O)[C@H](CCCNC(=N)N)NC(=O)CNC(=O)[C@H](Cc1ccc(O)cc1)NC(=O)CCNC(=O)c1ccc2c(c1)C1(OC2=O)c2ccc(O)cc2Oc2cc(O)ccc21)C(=O)N[C@@H](CCCNC(=N)N)C(=O)N[C@@H](CCCNC(=N)N)C(N)=O | Active | – | –
CN(C)C(=N)NCCC[C@H](NC(=O)[C@H](CCCNC(=N)N)NC(=O)[C@H](CCC(N)=O)NC(=O)[C@H](CCCNC(=N)N)NC(=O)[C@H](CCCNC(=N)N)NC(=O)[C@H](CCCCN)NC(=O)[C@H](CCCCN)NC(=O)[C@H](CCCNC(=N)N)NC(=O)CNC(=O)[C@H](Cc1ccc(O)cc1)NC(=O)CCNC(=O)c1ccc2c(c1)C1(OC2=O)c2ccc(O)cc2Oc2cc(O)ccc21)C(=O)N[C@@H](CCCNC(=N)N)C(N)=O | Active | – | –
CN(C)C(=N)NCCC[C@H](NC(=O)[C@H](CCCNC(=N)N)NC(=O)[C@H](CCCNC(=N)N)NC(=O)[C@H](CCC(N)=O)NC(=O)[C@H](CCCNC(=N)N)NC(=O)[C@H](CCCNC(=N)N)NC(=O)[C@H](CCCCN)NC(=O)[C@H](CCCCN)NC(=O)[C@H](CCCNC(=N)N)NC(=O)CNC(=O)[C@H](Cc1ccc(O)cc1)NC(=O)CCNC(=O)c1ccc2c(c1)C1(OC2=O)c2ccc(O)cc2Oc2cc(O)ccc21)C(N)=O | Active | – | –
C/N=C(\NC)NCCC[C@H](NC(=O)CNC(=O)[C@H](Cc1ccc(O)cc1)NC(=O)CCNC(=O)c1ccc2c(c1)C1(OC2=O)c2ccc(O)cc2Oc2cc(O)ccc21)C(=O)N[C@@H](CCCCN)C(=O)N[C@@H](CCCCN)C(=O)N[C@@H](CCCNC(=N)N)C(=O)N[C@@H](CCCNC(=N)N)C(=O)N[C@@H](CCC(N)=O)C(=O)N[C@@H](CCCNC(=N)N)C(=O)N[C@@H](CCCNC(=N)N)C(=O)N[C@@H](CCCNC(=N)N)C(N)=O | Active | – | –
C/N=C(\NC)NCCC[C@H](NC(=O)[C@H](CCCCN)NC(=O)[C@H](CCCCN)NC(=O)[C@H](CCCNC(=N)N)NC(=O)CNC(=O)[C@H](Cc1ccc(O)cc1)NC(=O)CCNC(=O)c1ccc2c(c1)C1(OC2=O)c2ccc(O)cc2Oc2cc(O)ccc21)C(=O)N[C@@H](CCCNC(=N)N)C(=O)N[C@@H](CCC(N)=O)C(=O)N[C@@H](CCCNC(=N)N)C(=O)N[C@@H](CCCNC(=N)N)C(=O)N[C@@H](CCCNC(=N)N)C(N)=O | Active | – | –
C/N=C(\NC)NCCC[C@H](NC(=O)[C@H](CCCNC(=N)N)NC(=O)[C@H](CCCCN)NC(=O)[C@H](CCCCN)NC(=O)[C@H](CCCNC(=N)N)NC(=O)CNC(=O)[C@H](Cc1ccc(O)cc1)NC(=O)CCNC(=O)c1ccc2c(c1)C1(OC2=O)c2ccc(O)cc2Oc2cc(O)ccc21)C(=O)N[C@@H](CCC(N)=O)C(=O)N[C@@H](CCCNC(=N)N)C(=O)N[C@@H](CCCNC(=N)N)C(=O)N[C@@H](CCCNC(=N)N)C(N)=O | Active | – | –
C/N=C(\NC)NCCC[C@H](NC(=O)[C@H](CCC(N)=O)NC(=O)[C@H](CCCNC(=N)N)NC(=O)[C@H](CCCNC(=N)N)NC(=O)[C@H](CCCCN)NC(=O)[C@H](CCCCN)NC(=O)[C@H](CCCNC(=N)N)NC(=O)CNC(=O)[C@H](Cc1ccc(O)cc1)NC(=O)CCNC(=O)c1ccc2c(c1)C1(OC2=O)c2ccc(O)cc2Oc2cc(O)ccc21)C(=O)N[C@@H](CCCNC(=N)N)C(=O)N[C@@H](CCCNC(=N)N)C(N)=O | Active | – | –
C/N=C(\NC)NCCC[C@H](NC(=O)[C@H](CCCNC(=N)N)NC(=O)[C@H](CCC(N)=O)NC(=O)[C@H](CCCNC(=N)N)NC(=O)[C@H](CCCNC(=N)N)NC(=O)[C@H](CCCCN)NC(=O)[C@H](CCCCN)NC(=O)[C@H](CCCNC(=N)N)NC(=O)CNC(=O)[C@H](Cc1ccc(O)cc1)NC(=O)CCNC(=O)c1ccc2c(c1)C1(OC2=O)c2ccc(O)cc2Oc2cc(O)ccc21)C(=O)N[C@@H](CCCNC(=N)N)C(N)=O | Active | – | –
C/N=C(\NC)NCCC[C@H](NC(=O)[C@H](CCCNC(=N)N)NC(=O)[C@H](CCCNC(=N)N)NC(=O)[C@H](CCC(N)=O)NC(=O)[C@H](CCCNC(=N)N)NC(=O)[C@H](CCCNC(=N)N)NC(=O)[C@H](CCCCN)NC(=O)[C@H](CCCCN)NC(=O)[C@H](CCCNC(=N)N)NC(=O)CNC(=O)[C@H](Cc1ccc(O)cc1)NC(=O)CCNC(=O)c1ccc2c(c1)C1(OC2=O)c2ccc(O)cc2Oc2cc(O)ccc21)C(N)=O | Active | – | –
C/N=C(\NC)NCCC[C@H](NC(=O)[C@H](CCCNC(=N)N)NC(=O)[C@H](CCC(N)=O)NC(=O)[C@H](CCCNC(=N)N)NC(=O)[C@H](CCCNC(=N)N)NC(=O)[C@H](CCCCN)NC(=O)[C@H](CCCCN)NC(=O)[C@H](CCCNC(=N)N)NC(=O)CNC(=O)[C@H](Cc1ccc(O)cc1)NC(C)=O)C(=O)N[C@@H](CCCNC(=N)N)C(N)=O | – | 0.317 | Non-toxic
C/N=C(\NC)NCCC[C@H](NC(=O)[C@H](CCCNC(=N)N)NC(=O)[C@H](CCCNC(=N)N)NC(=O)[C@H](CCC(N)=O)NC(=O)[C@H](CCCNC(=N)N)NC(=O)[C@H](CCCNC(=N)N)NC(=O)[C@H](CCCCN)NC(=O)[C@H](CCCCN)NC(=O)[C@H](CCCNC(=N)N)NC(=O)CNC(=O)[C@H](Cc1ccc(O)cc1)NC(C)=O)C(N)=O | – | 0.262 | Non-toxic
